The values that follow come from US10118930B2, “Piperidinylpyrazolopyrimidinones and their use” (BAYER PHARMA AKTIENGESELLSCHAFT, priority 2015, dated 2018).

Counter-ions that a name gives are not always drawn.

In the test the test system is clot lysis (fibrinolysis) in diluted human citrated plasma, tPA-induced. Description: Plasma-based clot lysis assay (5%). It counts as biochemical. The conditions noted are these: human citrated platelet-poor plasma 5%, fibrinogen 3 μM, CaCl2 10 mM, tPA 0.2 nM, 37° C., OD at 405 nm. The method, boiled down:
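Clot formation and breakdown triggered by CaCl2 (10 mM final) plus tPA (0.2 nM final) at 37° C, in 5% diluted human plasma supplemented with 3 μM fibrinogen (HEPES/NaCl/Brij buffer, pH 7). IC50 obtained from time courses relative to a blank control.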

Regarding `O=c1cc(C2CCNCC2)n2ncc(-c3nc(-c4cccc(Cl)n4)no3)c2[nH]1` [Example 133, 3-[3-(6-Chloropyridin-2-yl)-1,2,4-oxadiazol-5-yl]-7-(piperidin-4-yl)pyrazolo[1,5-a]pyrimidin-5(4H)-one hydrochloride], the IC50 – broadly, the concentration needed to halve the response being measured – turned out to be 39 nM.

`O=c1cc(C2CCNCC2)n2ncc(-c3nc(-c4ccc(C(F)(F)F)c(F)c4)no3)c2[nH]1` [Example 134, 3-{3-[3-Fluoro-4-(trifluoromethyl)phenyl]-1,2,4-oxadiazol-5-yl}-7-(piperidin-4-yl)pyrazolo[1,5-a]pyrimidin-5(4H)-one hydrochloride] yielded an IC50 of 43 nM.

Turning to `O=c1cc(C2CCNCC2)n2ncc(-c3nc(-c4ccc(C(F)(F)F)cc4Cl)no3)c2[nH]1` [Example 136, 3-{3-[2-Chloro-4-(trifluoromethyl)phenyl]-1,2,4-oxadiazol-5-yl}-7-(piperidin-4-yl)pyrazolo[1,5-a]pyrimidin-5(4H)-one hydrochloride], the IC50 is 43 nM.

As to `O=c1cc(C2CCNCC2)n2ncc(-c3nc(-c4cc(Cl)ccc4F)no3)c2[nH]1` [Example 137, 3-[3-(5-Chloro-2-fluorophenyl)-1,2,4-oxadiazol-5-yl]-7-(piperidin-4-yl)pyrazolo[1,5-a]pyrimidin-5(4H)-one hydrochloride], half-maximal inhibition (IC50) required 31 nM.

The compound `Cc1cc(C(F)(F)F)ccc1-c1noc(-c2cnn3c(C4CCNCC4)cc(=O)[nH]c23)n1` [Example 139, 3-{3-[2-Methyl-4-(trifluoromethyl)phenyl]-1,2,4-oxadiazol-5-yl}-7-(piperidin-4-yl)pyrazolo[1,5-a]pyrimidin-5(4H)-one hydrochloride] had an IC50 of 41 nM.

For `Cc1c(Cl)cccc1-c1noc(-c2cnn3c(C4CCNCC4)cc(=O)[nH]c23)n1` [Example 140, 3-[3-(3-Chloro-2-methylphenyl)-1,2,4-oxadiazol-5-yl]-7-(piperidin-4-yl)pyrazolo[1,5-a]pyrimidin-5(4H)-one hydrochloride], half-maximal inhibition (IC50) was put at 130 nM.

On to `Cc1ccc(Cl)cc1-c1noc(-c2cnn3c(C4CCNCC4)cc(=O)[nH]c23)n1` [Example 141, 3-[3-(5-Chloro-2-methylphenyl)-1,2,4-oxadiazol-5-yl]-7-(piperidin-4-yl)pyrazolo[1,5-a]pyrimidin-5(4H)-one hydrochloride], for which it took 74 nM to reach half-maximal inhibition (IC50).

Consider `COc1ccc(-c2noc(-c3cnn4c(C5CCNCC5)cc(=O)[nH]c34)n2)cc1Cl` [Example 142, 3-[3-(3-Chloro-4-methoxyphenyl)-1,2,4-oxadiazol-5-yl]-7-(piperidin-4-yl)pyrazolo[1,5-a]pyrimidin-5(4H)-one hydrochloride], for which half-maximal inhibition (IC50) was put at 41 nM.

On to `O=c1cc(C2CCNCC2)n2ncc(-c3nc(-c4cccc(Cl)c4Cl)no3)c2[nH]1` [Example 143, 3-[3-(2,3-Dichlorophenyl)-1,2,4-oxadiazol-5-yl]-7-(piperidin-4-yl)pyrazolo[1,5-a]pyrimidin-5 (4H)-one hydrochloride], for which the IC50 worked out at 41 nM.

On to `O=c1cc(C2CCNCC2)n2ncc(-c3nc(-c4cc(Cl)ccc4C(F)(F)F)no3)c2[nH]1` [Example 145, 3-{3-[5-Chloro-2-(trifluoromethyl)phenyl]-1,2,4-oxadiazol-5-yl}-7-(piperidin-4-yl)pyrazolo[1,5-a]pyrimidin-5(4H)-one hydrochloride], for which the IC50 worked out at 28 nM.

Compound `O=c1cc(C2CCNCC2)n2ncc(-c3nc(-c4cccc(C(F)(F)F)n4)no3)c2[nH]1` [Example 146, 7-(Piperidin-4-yl)-3-{3-[6-(trifluoromethyl)pyridin-2-yl]-1,2,4-oxadiazol-5-yl}pyrazolo[1,5-a]pyrimidin-5(4H)-one hydrochloride] gave an IC50 of 35 nM.

Consider `O=c1cc(C2CCNCC2)n2ncc(-c3nc(-c4cc(C(F)(F)F)ccn4)no3)c2[nH]1` [Example 147, 7-(piperidin-4-yl)-3-{3-[4-(trifluoromethyl)pyridin-2-yl]-1,2,4-oxadiazol-5-yl}pyrazolo[1,5-a]pyrimidin-5(4H)-one hydrochloride], for which the IC50 is 38 nM.

`O=c1cc(C2CCNCC2)n2ncc(-c3nc(-c4cccnc4Cl)no3)c2[nH]1` [Example 148, 3-[3-(2-Chloropyridin-3-yl)-1,2,4-oxadiazol-5-yl]-7-(piperidin-4-yl)pyrazolo[1,5-a]pyrimidin-5(4H)-one hydrochloride] came in with an IC50 of 43 nM.

`O=c1cc(C2CCNCC2)n2ncc(-c3nc(-c4ccc(OC(F)(F)F)c(Cl)c4)no3)c2[nH]1` [Example 149, 3-{3-[3-Chloro-4-(trifluoromethoxy)phenyl]-1,2,4-oxadiazol-5-yl}-7-(piperidin-4-yl)pyrazolo[1,5-a]pyrimidin-5(4H)-one hydrochloride] came in with an IC50 of 100 nM.

Take `O=c1cc(C2CCNCC2)n2ncc(-c3nc(-c4c(Cl)cc(C(F)(F)F)cc4Cl)no3)c2[nH]1` [Example 150, 3-{3-[2,6-Dichloro-4-(trifluoromethyl)phenyl]-1,2,4-oxadiazol-5-yl}-7-(piperidin-4-yl)pyrazolo[1,5-a]pyrimidin-5(4H)-one hydrochloride]: the IC50 came to 45 nM.

With `O=c1cc(C2CCNCC2)n2ncc(-c3nc(-c4cc(Cl)cc(Cl)c4)no3)c2[nH]1` [Example 151, 3-[3-(3,5-Dichlorophenyl)-1,2,4-oxadiazol-5-yl]-7-(piperidin-4-yl)pyrazolo[1,5-a]pyrimidin-5 (4H)-one hydrochloride], half-maximal inhibition (IC50) required 44 nM.

In turn, `O=c1cc(C2CCNCC2)n2ncc(-c3nc(-c4ccc(C(F)(F)F)cc4C(F)(F)F)no3)c2[nH]1` [Example 152, 3-{3-[2,4-Bis(trifluoromethyl)phenyl]-1,2,4-oxadiazol-5-yl}-7-(piperidin-4-yl)pyrazolo[1,5-a]pyrimidin-5(4H)-one hydrochloride] registered an IC50 of 43 nM.

As to `COc1ccc(-c2noc(-c3cnn4c(C5CCNCC5)cc(=O)[nH]c34)n2)c(C)c1` [Example 154, 3-[3-(4-methoxy-2-methylphenyl)-1,2,4-oxadiazol-5-yl]-7-(piperidin-4-yl)pyrazolo[1,5-a]pyrimidin-5(4H)-one hydrochloride], inhibition was half-maximal at 24 nM (IC50).

`O=c1cc(C2CCNCC2)n2ncc(-c3nc(-c4ccc(Cl)cc4)no3)c2[nH]1` [Example 157, 3-[3-(4-chlorophenyl)-1,2,4-oxadiazol-5-yl]-7-(piperidin-4-yl)pyrazolo[1,5-a]pyrimidin-5 (4H)-one hydrochloride] came in with an IC50 of 56 nM.

On to `O=c1cc(C2CCNCC2)n2ncc(-c3nc(-c4ccc(F)cc4F)no3)c2[nH]1` [Example 158, 3-[3-(2,4-difluorophenyl)-1,2,4-oxadiazol-5-yl]-7-(piperidin-4-yl)pyrazolo[1,5-a]pyrimidin-5(4H)-one hydrochloride], for which half-maximal inhibition (IC50) was put at 38 nM.

With `O=c1cc(C2CCNCC2)n2ncc(-c3nc(-c4ccccc4F)no3)c2[nH]1` [Example 159, 3-[3-(2-fluorophenyl)-1,2,4-oxadiazol-5-yl]-7-(piperidin-4-yl)pyrazolo[1,5-a]pyrimidin-5(4H)-one hydrochloride], the IC50 turned out to be 23 nM.

For `COc1ccccc1-c1noc(-c2cnn3c(C4CCNCC4)cc(=O)[nH]c23)n1` [Example 160, 3-[3-(2-methoxyphenyl)-1,2,4-oxadiazol-5-yl]-7-(piperidin-4-yl)pyrazolo[1,5-a]pyrimidin-5(4H)-one hydrochloride], it took 73 nM to reach half-maximal inhibition (IC50).

`O=c1cc(C2CCNCC2)n2ncc(-c3cccc(-c4ccc(C(F)(F)F)cc4)c3)c2[nH]1` [Example 162, 7-(piperidin-4-yl)-3-[4′-(trifluoromethyl)biphenyl-3-yl]pyrazolo[1,5-a]pyrimidin-5(4H)-one hydrochloride] had an IC50 of 140 nM.

In turn, `O=c1cc(C2CCNCC2)n2ncc(-c3nc(-c4cccc(Cl)c4)cs3)c2[nH]1` [Example 163, 3-[4-(3-chlorophenyl)-1,3-thiazol-2-yl]-7-(piperidin-4-yl)pyrazolo[1,5-a]pyrimidin-5 (4H)-one hydrochloride] displayed an IC50 of 40 nM.

For the compound `CC(C)(C)c1nnc(-c2cnn3c(C4CCNCC4)cc(=O)[nH]c23)o1` [Example 165, 3-(5-tert-butyl-1,3,4-oxadiazol-2-yl)-7-(piperidin-4-yl)pyrazolo[1,5-a]pyrimidin-5 (4H)-one hydrochloride], half-maximal inhibition (IC50) required 34 nM.

On to `O=c1cc(C2CCNCC2)n2ncc(-c3nnc(-c4ccc(C(F)(F)F)cc4)o3)c2[nH]1` [Example 166, 7-(piperidin-4-yl)-3-{5-[4-(trifluoromethyl)phenyl]-1,3,4-oxadiazol-2-yl}pyrazolo[1,5-a]pyrimidin-5(4H)-one hydrochloride], for which 8.7 nM corresponded to half-maximal inhibition (IC50).

Turning to `N#Cc1ccc(-c2nnc(-c3cnn4c(C5CCNCC5)cc(=O)[nH]c34)o2)cc1` [Example 167, 4-{5-[5-oxo-7-(piperidin-4-yl)-4,5-dihydropyrazolo[1,5-a]pyrimidin-3-yl]-1,3,4-oxadiazol-2-yl}benzonitrile hydrochloride], half-maximal inhibition (IC50) was put at 34 nM.

With `Cn1cncc1-c1nnc(-c2cnn3c(C4CCNCC4)cc(=O)[nH]c23)o1` [Example 168, 3-[5-(1-methyl-1H-imidazol-5-yl)-1,3,4-oxadiazol-2-yl]-7-(piperidin-4-yl)pyrazolo[1,5-a]pyrimidin-5(4H)-one hydrochloride], the IC50 came to 33 nM.

With `Cc1ccc(-c2nnc(-c3cnn4c(C5CCNCC5)cc(=O)[nH]c34)o2)cc1` [Example 170, 3-[5-(4-methylphenyl)-1,3,4-oxadiazol-2-yl]-7-(piperidin-4-yl)pyrazolo[1,5-a]pyrimidin-5 (4H)-one hydrochloride], half-maximal inhibition (IC50) required 34 nM.

The compound `O=c1cc(C2CCNCC2)n2ncc(-c3nnc(-c4ccccc4C(F)(F)F)o3)c2[nH]1` [Example 172, 7-(piperidin-4-yl)-3-{5-[2-(trifluoromethyl)phenyl]-1,3,4-oxadiazol-2-yl}pyrazolo[1,5-a]pyrimidin-5(4H)-one hydrochloride] came in with an IC50 of 59 nM.
